Where a name gives a salt, the structure may show the parent alone. Read-outs that look alike come from different tables or passages of the source.
Assays:
Format in all cases: cell-based
AGS = assay: Alamar Blue cell viability assay, AGS; conditions: Homo sapiens, 96 h incubation, read-out: cell proliferation inhibition AGS
Experimental: (§1) Inhibitory activity on cell proliferation of representative compounds of the invention was determined using an Alamar Blue cell viability assay as described hereafter.
(§2) 3000 cancer cells in 100 uL of cell culture media were plated in each well of a 96-well clear bottom, black wall cell culture-pretreated plate.
(§3) The next day compounds are serially diluted (3-fold in cell culture media) across a 96-well polypropylene mother plate from row A to row F, to yield 6 concentrations (10 uM, 3.3 uM, 1.1 uM, 370 nM, 124 nM and 41 nM) for each test compound. Rows G and H contain only DMSO.
(§4) Once titrations are made, the media in plates with cells were disposed and 100 μL of drug dilutions are transferred to plates with cells. After a ninety six-hour incubation at 37° C., 10 uL of resazurin solution from Alamar Blue Cell Viability kit (Invitrogen, Carlsbad, Calif.) was added to the media and cells were incubated at 37° C. for three more hours. At the end of this incubation the production of resofurin was measured using Spectrmax M2 microplate reader (Molecular Devices, Sunnyvale, Calif.)

KG-1 = assay: Alamar Blue cell viability assay, KG-1; conditions: Homo sapiens, 96 h incubation, read-out: cell proliferation inhibition KG-1
Experimental: as §1, §2, §3, §4

NOMO-1 = assay: Alamar Blue cell viability assay, NOMO-1; conditions: Homo sapiens, 96 h incubation, read-out: cell proliferation inhibition NOMO-1
Experimental: as §1, §2, §3, §4

HT-1080 = assay: Alamar Blue cell viability assay, HT-1080; conditions: Homo sapiens, 96 h incubation, read-out: cell proliferation inhibition HT-1080
Experimental: as §1, §2, §3, §4

DLD-1 = assay: Alamar Blue cell viability assay, DLD-1; conditions: Homo sapiens, 96 h incubation, read-out: cell proliferation inhibition DLD-1
Experimental: as §1, §2, §3, §4

MDA-MB-231 = assay: Alamar Blue cell viability assay, MDA-MB-231; conditions: Homo sapiens, 96 h incubation, read-out: cell proliferation inhibition MDA-MB-231
Experimental: as §1, §2, §3, §4

SKM_1_AV = assay: Alamar Blue cell viability assay, SKM_1_AV; conditions: 96 h incubation, read-out: cell proliferation inhibition SKM_1_AV
Experimental: as §1, §2, §3, §4

4T1 = assay: Alamar Blue cell viability assay, 4T1; conditions: Mus musculus, 96 h incubation, read-out: cell proliferation inhibition 4T1
Experimental: as §1, §2, §3, §4

Hep G2 = assay: Alamar Blue cell viability assay, Hep G2; conditions: Homo sapiens, HepG2, 96 h incubation, read-out: cell proliferation inhibition Hep G2
Experimental: as §1, §2, §3, §4

B16-F10 = assay: Alamar Blue cell viability assay, B16-F10; conditions: Mus musculus, 96 h incubation, read-out: cell proliferation inhibition B16-F10
Experimental: as §1, §2, §3, §4

SKM-1 = assay: Alamar Blue cell viability assay, SKM-1; conditions: Homo sapiens, 96 h incubation, read-out: cell proliferation inhibition SKM-1
Experimental: as §1, §2, §3, §4

A375 cell line = assay: Alamar Blue cell viability assay, A375; conditions: Homo sapiens, A-375; cell proliferation inhibition, Alamar Blue, 96 h incubation; read-out: Pharmaceutical activity IC50 A375
Experimental: as §1, §2, §3, §4

HCT-116 = assay: Alamar Blue cell viability assay, HCT-116; conditions: Homo sapiens, 96 h incubation, read-out: cell proliferation inhibition HCT-116
Experimental: as §1, §2, §3, §4

NCI-H1299 = assay: Alamar Blue cell viability assay, NCI-H1299; conditions: Homo sapiens, 96 h incubation, read-out: cell proliferation inhibition NCI-H1299
Experimental: as §1, §2, §3, §4

ML-2 = assay: Alamar Blue cell viability assay, ML-2; conditions: Homo sapiens, 96 h incubation, read-out: cell proliferation inhibition ML-2
Experimental: as §1, §2, §3, §4

LnCAP = assay: Alamar Blue cell viability assay, LnCAP; conditions: Homo sapiens, 96 h incubation, read-out: cell proliferation inhibition LnCAP
Experimental: as §1, §2, §3, §4

PC-3 = assay: Alamar Blue cell viability assay, PC-3; conditions: Homo sapiens, 96 h incubation, read-out: cell proliferation inhibition PC-3
Experimental: as §1, §2, §3, §4

CT26 = assay: Alamar Blue cell viability assay, CT26; conditions: Mus musculus, 96 h incubation, read-out: cell proliferation inhibition CT26
Experimental: as §1, §2, §3, §4

NB4-Av = assay: Alamar Blue cell viability assay, NB4-Av; conditions: 96 h incubation, read-out: cell proliferation inhibition NB4-Av
Experimental: as §1, §2, §3, §4

MCF7 = assay: Alamar Blue cell viability assay, MCF7; conditions: Homo sapiens, 96 h incubation, read-out: cell proliferation inhibition MCF7
Experimental: as §1, §2, §3, §4

A549 = assay: Alamar Blue cell viability assay, A549; conditions: Homo sapiens, 96 h incubation, read-out: cell proliferation inhibition A549
Experimental: as §1, §2, §3, §4

TOV112D = assay: Alamar Blue cell viability assay, TOV112D ovarian cell line; conditions: Homo sapiens, 96 h incubation, read-out: IC50 in ovarian cell lines TOV112D
Experimental: as §1, §2, §3, §4

kuramochi = assay: Alamar Blue cell viability assay, kuramochi ovarian cell line; conditions: 96 h incubation, read-out: IC50 in ovarian cell lines kuramochi
Experimental: as §1, §2, §3, §4

ES.2 = assay: Alamar Blue cell viability assay, ES.2; conditions: Homo sapiens
Experimental: as §1, §2, §3, §4

U-87 MG = assay: Alamar Blue cell viability assay, U-87 MG; conditions: Homo sapiens, cell proliferation inhibition, 96 h incubation, read-out: Pharmaceutical activity IC50 U-87 MG
Experimental: as §1, §2, §3, §4

JHOC9 = assay: Alamar Blue cell viability assay, JHOC9 ovarian cell line; conditions: 96 h incubation, read-out: IC50 in ovarian cell lines JHOC9
Experimental: as §1, §2, §3, §4

A2058 = assay: Alamar Blue cell viability assay, A2058; conditions: Homo sapiens, cell proliferation inhibition, 96 h incubation, read-out: Pharmaceutical activity IC50 A2058
Experimental: as §1, §2, §3, §4

2008 = assay: Alamar Blue cell viability assay, 2008; conditions: cell proliferation inhibition, 96 h incubation, read-out: Pharmaceutical activity IC50 2008
Experimental: as §1, §2, §3, §4

EF-21 = assay: Alamar Blue cell viability assay, EF-21 ovarian cell line; conditions: 96 h incubation, read-out: IC50 in ovarian cell lines EF-21
Experimental: as §1, §2, §3, §4

Hs.294T = assay: Alamar Blue cell viability assay, Hs.294T; conditions: Homo sapiens, 96 h incubation, read-out: cell proliferation inhibition Hs.294T
Experimental: as §1, §2, §3, §4

A2780 = assay: Alamar Blue cell viability assay, A2780; conditions: Homo sapiens, cell proliferation inhibition, 96 h incubation, read-out: Pharmaceutical activity IC50 A2780
Experimental: as §1, §2, §3, §4

WM-115 = assay: Alamar Blue cell viability assay, WM-115; conditions: Homo sapiens, 96 h incubation, read-out: cell proliferation inhibition WM-115
Experimental: as §1, §2, §3, §4

Malme-3M = assay: Alamar Blue cell viability assay, Malme-3M; conditions: Homo sapiens, cell proliferation inhibition, 96 h incubation, read-out: Pharmaceutical activity IC50 Malme-3M
Experimental: as §1, §2, §3, §4

JHOM1 = assay: Alamar Blue cell viability assay, JHOM1 ovarian cell line; conditions: 96 h incubation, read-out: IC50 in ovarian cell lines JHOM1
Experimental: as §1, §2, §3, §4

SK-MEL 28 = assay: Alamar Blue cell viability assay, SK-MEL 28; conditions: Homo sapiens, cell proliferation inhibition, 96 h incubation, read-out: Pharmaceutical activity IC50 SK-MEL 28
Experimental: as §1, §2, §3, §4

JHOC7 = assay: Alamar Blue cell viability assay, JHOC7 ovarian cell line; conditions: 96 h incubation, read-out: IC50 in ovarian cell lines JHOC7
Experimental: as §1, §2, §3, §4

[1] = Table 2, 96 h incubation, read-out: cell proliferation inhibition ES.2

| SMILES | IC50 (AGS) [µM] | IC50 (HT-1080) [µM] | IC50 (DLD-1) [µM] | IC50 (MDA-MB-231) [µM] | IC50 (SKM_1_AV) [µM] | IC50 (4T1) [µM] | IC50 (B16-F10) [µM] | IC50 (SKM-1) [µM] | IC50 (A375 cell line) [µM] | IC50 (HCT-116) [µM] | IC50 (NCI-H1299) [µM] | IC50 (LnCAP) [µM] | IC50 (PC-3) [µM] | IC50 (CT26) [µM] | IC50 (MCF7) [µM] | IC50 (KG-1) [µM] | IC50 (NOMO-1) [µM] | IC50 (Hep G2) [µM] | IC50 (ML-2) [µM] | IC50 (NB4-Av) [µM] | also measured |
| --- | --- | --- | --- | --- | --- | --- | --- | --- | --- | --- | --- | --- | --- | --- | --- | --- | --- | --- | --- | --- | --- |
| CNC(=O)c1cc2ccc(N3CCCN(C)CC3)nc2n2c1nc1ccccc12 [Compound 2G, 2-(4-methyl-[1,4]diazepan-1-yl)-1,7,11b-triazabenzo[c]fluorene-6-carboxylic acid methylamide] | < 1 | 1 to 5 | < 1 | < 1 | < 1 | 5 to 10 | 1 to 5 | < 1 | < 1 | < 1 | 1 to 5 | 1 to 5 | < 1 | 1 to 5 | 1 to 5 | < 1 | < 1 | < 1 | < 1 | < 1 | IC50 (TOV112D): < 1 µM; IC50 (kuramochi): < 1 µM; IC50 (ES.2; Table 1, cell proliferation inhibition, 96 h incubation, read-out: Pharmaceutical activity IC50 ES.2): < 1 µM; IC50 (ES.2; [1]): < 1 µM; IC50 (U-87 MG): < 1 µM; IC50 (JHOC9): < 1 µM; IC50 (A2058): < 1 µM; IC50 2008: < 1 µM; IC50 (EF-21): < 1 µM; IC50 (Hs.294T): < 1 µM; IC50 (A2780): < 1 µM; IC50 (WM-115): 1 to 5 µM; IC50 (Malme-3M): < 1 µM; IC50 (JHOM1): < 1 µM; IC50 (A549): 1 to 5 µM; IC50 (SK-MEL 28): < 1 µM; IC50 (JHOC7): < 1 µM |
| Cc1cnc(CNC(=O)c2cc3ccc(N4CCCN(C)CC4)nc3n3c2nc2ccccc23)cn1 [Compound 2E, 2-(4-methyl-[1,4]diazepan-1-yl)-1,7,11b-triazabenzo[c]fluorene-6-carboxylic acid (5-methylpyrazin-2-ylmethyl)-amide] | – | – | – | – | – | – | – | – | < 1 | – | – | – | – | – | – | – | – | – | – | – | IC50 (A2058): 5 to 10 µM |
| CN1CCCN(c2ccc3cc(C(=O)O)c4nc5ccccc5n4c3n2)CC1 [Compound 1A, 2-(4-methyl-[1,4]diazepan-1-yl)-1,7,11b-triaza-benzo[c]fluorene-6-carboxylate sodium salt] | 1 to 5 | 1 to 5 | 1 to 5 | 1 to 5 | < 1 | 5 to 10 | 5 to 10 | < 1 | < 1 | < 1 | 1 to 5 | 5 to 10 | 1 to 5 | 5 to 10 | 1 to 5 | < 1 | < 1 | < 1 | < 1 | < 1 | IC50 (ES.2; [1]): < 1 µM; IC50 (Hs.294T): < 1 µM; IC50 (WM-115): < 1 µM; IC50 (A549): 5 to 10 µM |

Continued, in another order:

| IC50 (AGS) [µM] | IC50 (HT-1080) [µM] | IC50 (DLD-1) [µM] | IC50 (MDA-MB-231) [µM] | IC50 (SKM_1_AV) [µM] | IC50 (4T1) [µM] | IC50 (B16-F10) [µM] | IC50 (SKM-1) [µM] | IC50 (A375 cell line) [µM] | IC50 (HCT-116) [µM] | IC50 (NCI-H1299) [µM] | IC50 (LnCAP) [µM] | IC50 (PC-3) [µM] | IC50 (CT26) [µM] | IC50 (MCF7) [µM] | SMILES | IC50 (KG-1) [µM] | IC50 (NOMO-1) [µM] | IC50 (Hep G2) [µM] | IC50 (ML-2) [µM] | IC50 (NB4-Av) [µM] | also measured |
| --- | --- | --- | --- | --- | --- | --- | --- | --- | --- | --- | --- | --- | --- | --- | --- | --- | --- | --- | --- | --- | --- |
| < 1 | 5 to 10 | < 1 | < 1 | < 1 | 5 to 10 | 1 to 5 | < 1 | < 1 | < 1 | 5 to 10 | 5 to 10 | 1 to 5 | 5 to 10 | 5 to 10 | C[C@@H]1CN(c2ccc3cc(C#N)c4nc5ccccc5n4c3n2)C[C@H](C)N1 [Compound 3A, 2-((3S,5R)-3,5-dimethylpiperazin-1-yl)-1,7,11b-triaza-benzo[c]fluorene-6-carbonitrile] | < 1 | < 1 | < 1 | < 1 | < 1 | IC50 (A549): 5 to 10 µM |
| – | – | – | – | – | – | – | < 1 | < 1 | – | – | – | – | – | – | CCN1CCN(c2ccc3cc(C#N)c4nc5ccccc5n4c3n2)CC1 [Compound 3B, 2-(4-ethylpiperazin-1-yl)-1,7,11b-triaza-benzo[c]fluorene-6-carbonitrile] | – | – | < 1 | – | – | – |

— US9951066B2, “Compositions, uses and methods for making them” (Pimera, Inc., priority 2014, dated 2018)
